The values below come from patent publication US20230365530A1, “QUINAZOLINE-2,4-DIAMINE DERIVATIVE AND PHARMACEUTICAL COMPOSITION FOR PREVENTING OR TREATING CANCER COMPRISING SAME AS ACTIVE INGREDIENT” (THE ASEAN FOUNDATION, priority 2020, published 2023).

Where only a bound is given, the exact number is not on record here.

The target of assay [1] is EHMT2 (Euchromatic histone-lysine N-methyltransferase 2) (Homo sapiens (Human), UniProt Q96KQ7). The experiment in a line: EHMT2 enzyme inhibition, LANCE TR-FRET. The assay is classed as biochemical. Particulars: histone H3 peptide, 1 hour at room temperature. The procedure, abridged:
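EHMT2/G9a enzyme preincubated 10 min with SAM and compounds (1 nM–100 μM, 4× stocks), then reacted 1 hour at room temperature with biotinylated histone H3 peptide (2 μM, 4× stock). H3K9 methylation detected by Eu-antibody/ULight-streptavidin TR-FRET at 665 nm; background-subtracted activity expressed relative to 4% DMSO vehicle; IC50 calculated.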
Background: TR-FRET usually uses a lanthanide donor and a delayed reading to cut background.

For assay [2], the system named is pancreatic cancer cell line Miapaca 2. Put plainly: Cancer cell growth inhibition test, CellTiter-glo. The assay is classed as cell-based. Conditions: Homo sapiens, MIA PaCa-2, Miapaca 2 cells, 72 hours. Here is the method:
In order to confirm the effect of reducing cell viability by inhibiting EHMT2 by the compounds of Examples in cells, the effect of inhibiting cancer cell growth was analyzed using CellTiter-glo™ analysis (Promega, cat. G7573) method. Specifically, the amount of ATP in living cells was measured and IC50 values were calculated using software to compare the inhibitory effect of the compounds of Examples on cell viability. First, the pancreatic cancer cell line Miapaca 2 was placed in a 96-well cell culture plate at the density of 1×10^3 cells/well and cultured overnight, and then each well of the plate was treated with 1 nM to 100 μM of the compounds of Examples 1 to 89 at each concentration for 72 hours (The final concentration of DMSO in each well was 0.5% or less). CellTiter-glo 2.0 reagent was mixed with a medium at 20% of the amount of the medium, reacted at room temperature for 10 minutes, and then 80 μL of the mixture was transferred to each well of a 96-well plate, followed by measuring the degree of luminescence.
On the technique in general: In ATP-based viability assays light output follows the ATP content of the culture.

A further assay deals with Miapaca2 xenograft model. Put plainly: Tumor growth inhibition in Miapaca2 xenograft model. The assay is classed as in vivo, Athymic nude mouse. Conditions: 20 mg/kg intraperitoneally once a day for 4 weeks. As for the experimental part:
In order to confirm the tumor growth inhibitory effect of the compounds of Examples according to the present invention in a xenograft model in which the human pancreatic cancer cell line was transplanted, a cancer growth inhibition experiment was conducted in the Miapaca2 xenograft model.
Specific experimental methods are as follows. The frozen Miapaca-2 cell line was thawed and cultured in DMEM (Dulbecco's modified Eagle's medium) supplemented with 10% FBS and 1% penicillin-streptomycin in a 37° C., 5% CO2 incubator. The thawed cells were cultured for more than one week, and subcultured at intervals of 2˜3 days, confirming that there was no infection with bacteria, yeast (cell image) and mycoplasma. The cells were stained with trypan blue, and those having a survival rate of 90% or more were used for transplantation. The cells were suspended using trypsin-EDTA and then suspended in a cold solution (PBS:matrigel=6:4). Miapaca-2 cells (4×10^6 cells/[…]) were subcutaneously transplanted under the right scapula of the Athymic nude mouse, which had been acclimated for about 1 week. From the 3rd day after the transplantation, tumor formation and growth were observed, and the volume of the tumor was calculated according to the following equation using the measured tumor length.
[Tumor volume=(a^2b)/2, a: short diameter, b: long diameter]
When the average tumor volume of all mice on the day after tumor transplantation was 80±20 mm^3, the mice were grouped by paired-matching. Drugs were dissolved in 40% polyethylene glycol 400+16% 2-hydroxypropyl-b-cyclodextrin. The drugs were intraperitoneally administered at 20 mg/kg once a day for 4 weeks. A tumor growth curve was prepared using the tumor volume from the start date of drug administration to the end of the test. The results are shown in FIG. 1, and the tumor growth inhibition rates of the compounds of Examples to the control group are shown in Table 4.

The next assay deals with MC38 syngeneic model. Put plainly: Combination therapy with anti CTLA-4 in MC38 syngeneic model. The assay is classed as in vivo, C57BL/6 mouse. Here is the method:
In order to confirm the synergistic efficacy of the combination therapy of the compounds of Examples of the present invention and a cancer immunotherapy agent (anti CTLA-4) in a syngeneic animal model transplanted with a mouse colorectal cancer cell line, a cancer cell growth inhibition experiment was conducted in the MC38 syngeneic model. Specific experimental methods are as follows. The frozen MC38 cell line was thawed and cultured in DMEM (Dulbecco's modified Eagle's medium) supplemented with 10% FBS and 1% penicillin-streptomycin in a 37° C., 5% CO2 incubator. The thawed cells were cultured for more than one week, and subcultured at intervals of 2-3 days, confirming that there was no infection with bacteria, yeast (cell image) and mycoplasma. The cells were stained with trypan blue, and those having a survival rate of 90% or more were used for transplantation. The cells were suspended using trypsin-EDTA and then suspended in cold PBS. MC38 cells (1×10^5 cells/150 μl) were subcutaneously transplanted under the right scapula of the C57BL/6 mouse, which had been acclimated for about 1 week. From the 3rd day after the transplantation, tumor formation and growth were observed, and the volume of the tumor was calculated according to the following equation using the measured tumor length. [Tumor volume=(a^2b)/2, a: short diameter, b: long diameter] When the average tumor volume of all mice on the day after tumor transplantation was 80±20 mm^3, the mice were grouped by paired-matching. Drugs were dissolved in 40% polyethylene glycol 400+16% 2-hydroxypropyl-b-cyclodextrin. The compounds of Examples of the present invention were intraperitoneally administered at 30 mg/kg once a day for 4 weeks, and the CTLA-4 antibody (BioX Cell, cat. BE1031) was intraperitoneally administered at 10 mg/kg three times a week. A tumor growth curve was prepared using the tumor volume from the start date of drug administration to the end of the test. The results are shown in FIG. 2, and the tumor growth inhibition rates of the compounds of Examples to the control group are shown in Table 5.

A word on the IC50: it is the midpoint of a concentration-inhibition curve. Read a low IC50 as greater potency.

Chain of EHMT2 (Euchromatic histone-lysine N-methyltransferase 2) (Q96KQ7 whole entry): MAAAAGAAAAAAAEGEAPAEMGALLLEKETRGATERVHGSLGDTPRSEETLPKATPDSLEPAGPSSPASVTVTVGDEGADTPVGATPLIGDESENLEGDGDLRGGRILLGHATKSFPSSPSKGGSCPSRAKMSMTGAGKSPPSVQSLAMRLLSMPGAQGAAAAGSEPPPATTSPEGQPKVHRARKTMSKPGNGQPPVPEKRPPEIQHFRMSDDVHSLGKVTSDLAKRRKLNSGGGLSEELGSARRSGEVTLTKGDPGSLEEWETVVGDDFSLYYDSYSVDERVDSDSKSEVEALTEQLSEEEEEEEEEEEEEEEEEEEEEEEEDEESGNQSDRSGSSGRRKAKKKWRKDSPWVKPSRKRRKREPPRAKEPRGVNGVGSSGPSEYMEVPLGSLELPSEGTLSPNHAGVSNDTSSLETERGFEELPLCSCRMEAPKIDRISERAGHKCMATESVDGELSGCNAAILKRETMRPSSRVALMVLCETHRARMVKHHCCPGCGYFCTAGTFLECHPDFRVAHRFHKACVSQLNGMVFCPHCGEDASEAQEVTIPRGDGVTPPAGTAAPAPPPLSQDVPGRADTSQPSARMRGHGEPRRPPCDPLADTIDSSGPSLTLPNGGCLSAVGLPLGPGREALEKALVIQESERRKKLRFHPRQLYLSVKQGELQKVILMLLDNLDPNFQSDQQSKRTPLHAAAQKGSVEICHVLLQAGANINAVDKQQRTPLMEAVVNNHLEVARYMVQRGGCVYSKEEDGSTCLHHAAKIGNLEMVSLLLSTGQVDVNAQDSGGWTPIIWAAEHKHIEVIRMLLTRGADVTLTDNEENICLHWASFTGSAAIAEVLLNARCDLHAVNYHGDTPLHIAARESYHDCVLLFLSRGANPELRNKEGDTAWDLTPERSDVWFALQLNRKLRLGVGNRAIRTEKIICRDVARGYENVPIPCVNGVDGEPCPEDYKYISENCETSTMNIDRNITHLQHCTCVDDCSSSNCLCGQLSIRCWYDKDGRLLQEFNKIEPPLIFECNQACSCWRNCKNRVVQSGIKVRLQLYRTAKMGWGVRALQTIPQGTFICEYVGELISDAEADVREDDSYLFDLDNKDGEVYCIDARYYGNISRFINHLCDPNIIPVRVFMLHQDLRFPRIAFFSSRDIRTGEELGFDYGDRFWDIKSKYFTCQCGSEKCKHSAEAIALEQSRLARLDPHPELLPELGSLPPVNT

For the molecule `COc1cc2c(NC3CCN(C(C)C)CC3)nc(N(C)C)nc2cc1C#CCCN1CCCC1` [Example 49, N4-(1-isopropylpiperidine-4-yl)-6-methoxy-N2,N2-dimethyl-7-(4-(pyrrolidine-1-yl)-1-butyne-1-yl)quinazoline-2,4-diamine], the values for the IC50 in assay [1] and in assay [2] were under 100 nM and 333 nM, respectively.

As for `COc1cc2c(NC3CCN(C(C)C)CC3)nc(N3CCCCC3)nc2cc1C#CCCN(C)C` [Example 3, 7-(4-(dimethylamino)-1-butyne-1-yl)-N-(1-isopropylpiperidine-4-yl)-6-methoxy-2-(piperidine-1-yl)quinazoline-4-amine], the results for the IC50 in assay [1] and in assay [2] were under 100 nM and 655 nM, respectively. In addition, the “Tumor growth inhibition rate (TGI)” value with Miapaca2 xenograft model stood at 42.47; in the assay on MC38 syngeneic model (compound alone, 30 mg/kg intraperitoneally once a day for 4 weeks), 3.00%. In addition, the “Effect of combination with cancer immunotherapy agent (in words)” value in the assay on MC38 syngeneic model (combined with anti CTLA-4) is reported as “enhancing the anticancer activity of a cancer immunotherapy agent”. Also, the “Anticancer activity alone (in words)” value with MC38 syngeneic model (treated alone) was “inhibits tumor growth even when treated alone”.

For the molecule `COc1cc2c(NC3CCN(C4CC4)CC3)nc(N3CCCN(C)CC3)nc2cc1C#CCCN1CCCC1` [Example 56, N-(1-cyclopropylpiperidine-4-yl)-6-methoxy-2-(4-methyl-1,4-diazepane-1-yl)-7-(4-(pyrrolidine-1-yl)-1-butyne-1-yl)quinazoline-4-amine], the IC50 in assay [1] was under 100 nM; in assay [2], 192 nM.

With `COc1cc2c(NCCN(C)C)nc(N3CCCC3)nc2cc1C#CCCN1CCCC1` [Example 52, N1-(6-methoxy-2-(pyrrolidine-1-yl)-7-(4-(pyrrolidine-1-yl)-1-butyne-1-yl)quinazoline-4-yl)-N2,N2-dimethylethane-1,2-diamine], the half-inhibitory concentration (IC50) is under 100 nM in assay [1] and 464 nM in assay [2]. Moreover, the “Tumor growth inhibition rate (TGI)” value in the assay on Miapaca2 xenograft model turned out to be 26.39.

As for `COc1cc2c(NC3CCN(C(C)C)CC3)nc(N(C)C)nc2cc1C#CCCN(C)C` [Example 14], the 50% inhibitory concentration (IC50) in assay [1] was under 100 nM; in assay [2], 338 nM.

`COc1cc2c(NC3CCN(C4CC4)CC3)nc(N(C)C)nc2cc1C#CCCN1CCCC1` [Example 55, N4-(1-cyclopropylpiperidine-4-yl)-6-methoxy-N2,N2-dimethyl-7-(4-(pyrrolidine-1-yl)-1-butyne-1-yl)quinazoline-2,4-diamine]: the IC50 in assay [1] is under 100 nM; in assay [2], 307 nM. For the same molecule, in the assay on Miapaca2 xenograft model, the “Tumor growth inhibition rate (TGI)” value is reported as 31.80.

Take `COc1cc2c(NC3CCN(C(C)C)CC3)nc(N3CC[C@@H](F)C3)nc2cc1C#CCCN1CCCC1` [Example 60, (R)-2-(3-fluoropyrrolidine-1-yl)-N-(1-isopropylpiperidine-4-yl)-6-methoxy-7-(4-(pyrrolidine-1-yl)-1-butyne-1-yl)quinazoline-4-amine]: the half-maximal inhibitory concentration (IC50) in assay [1] is under 100 nM; in assay [2] it was 669 nM.

`CCCN1CCC(Nc2nc(N3CCCC3)nc3cc(C#CCCN4CCCC4)c(OC)cc23)CC1` [Example 68, 6-methoxy-N-(1-propylpiperidine-4-yl)-2-(pyrrolidine-1-yl)-7-(4-(pyrrolidine-1-yl)-1-butyne-1-yl)quinazoline-4-amine]: the IC50 in assay [1] was under 100 nM.

`COc1cc2c(NC3CCN(C(C)C)CC3)nc(N3CCCC3)nc2cc1C#CCCN1CCCC1` [Example 42, N-(1-isopropylpiperidine-4-yl)-6-methoxy-2-(pyrrolidine-1-yl)-7-(4-(pyrrolidine-1-yl)-1-butyne-1-yl)quinazoline-4-amine]: the IC50 in assay [1] is under 100 nM; in assay [2], 304 nM.

`COc1cc2c(NC3CCN(C(C)C)CC3)nc(Nc3cnn(C)c3)nc2cc1C#CCCN1CCCC1` [Example 88, N4-(1-isopropylpiperidine-4-yl)-6-methoxy-N2-(1-methyl-1H-pyrazole-4-yl)-7-(4-(pyrrolidine-1-yl)-1-butyne-1-yl)quinazoline-2,4-diamine] registered an IC50 in assay [1] of 100 to 1000 nM.

`COc1cc2c(NC3CCN(CCO)CC3)nc(N3CC[C@@H](F)C3)nc2cc1C#CCCN1CCCC1` [Example 89] had an IC50 in assay [1] of under 100 nM.

As to `CCN1CCC(Nc2nc(N(C)C)nc3cc(C#CCCN4CCCC4)c(OC)cc23)CC1` [Example 63, N4-(1-ethylpiperidine-4-yl)-6-methoxy-N2,N2-dimethyl-7-(4-(-pyrrolidine-1-yl)-1-butyne-1-yl)quinazoline-2,4-diamine], the IC50 in assay [1] was under 100 nM.

With `CCN1CCC(Nc2nc(N3CC[C@H](F)C3)nc3cc(C#CCCN4CCCC4)c(OC)cc23)CC1` [Example 72, (S)-N-(1-ethylpiperidine-4-yl)-2-(3-fluoropyrrolidine-1-yl)-6-methoxy-7-(4-(pyrrolidine-1-yl)-1-butyne-1-yl)quinazoline-4-amine], the IC50 in assay [1] was under 100 nM.

For the molecule `COc1cc2c(NC3CCN(C(C)C)CC3)nc(N3CCC(F)(F)CC3)nc2cc1C#CCCN1CCCC1` [Example 35, 2-(4,4-difluoropiperidine-1-yl)-N-(1-isopropylpiperidine-4-yl)-6-methoxy-7-(4-(pyrrolidine-1-yl)-1-butyne-1-yl)quinazoline-4-amine], in assay [1], the half-inhibitory concentration (IC50) is 1000 to 10000 nM.
